# Reference: US20210228523A1, “MODULATORS OF SESTRIN-GATOR2 INTERACTION AND USES THEREOF” (Navitor Pharmaceuticals, Inc., priority 2017, published 2021)
# Columns and labels:
# [1] = system: Male Sprague Dawley rats; assay: Sucrose Preference Test (SPT) in non-stressed and chronic unpredictable stress rats; type: in vivo, rat; conditions: Example E, NV-5138 160 mg/kg oral single dose, 24 hrs after dosing
# Procedure: Behavioral Analysis Using the Sucrose Preference Test (SPT): Rats were habituated to a palatable sucrose 1% sucrose solution for 48 hrs to avoid neophobia. Rats were treated with NV-5138 or Veh at the end of day 0 and the SPT was performed 24 hrs post-administration on day 1. For the SPT, rats were deprived of water for 6 hrs and exposed for 60 min to two bottles with equal volumes of 1% sucrose or water. The ratio of the volume of sucrose water consumed to total water consumed during the 1 hr test was defined as sucrose preference (e.g., a ratio of 1 would indicate the rat consumed only 1% sucrose, while a ratio of 0.5 would indicate that the rat drank equal amounts of 1% sucrose and water).
# Chronic Unpredictable Stress (CUS) Conditions: Rats were exposed to a variable sequence of 12 unpredictable stressors, preventing habituation as described (Li, N. et al., Biol Psychiatry 69(8): 754-61 (2011)). […]
# Study Design: Fifty-six (56) male rats weighing between 175 and 200 g were randomized into 4 study groups (n=14/group), following a 5-day acclimation period. […] Crude synaptosomes were prepared from the PFC and the synaptic proteins, GluR1 and PSD95 were quantitated by WB. […]
# [2] = system: mTORC1; assay: Western blot of pS6 in multiple regions of the rat brain; type: in vivo; conditions: Example C; NV-5138 160 mg/kg oral; 1 hr post-dose; ad libitum access to food
# Procedure: Study Design: Ten (10) male rats weighing between 175 and 200 g were randomized into 2 study groups (n=5/group), following a 5-day acclimation period. Group 1 received a single administration of Veh by oral gavage and group 2 received a single administration of NV-5138 (160 mg/kg prepared in Veh) by oral gavage. One hour following administration, rats were sacrificed by conscious decapitation, plasma was collected for analysis of NV-5138 exposure in addition to the isolation of the PFC, hippocampus, striatum, neocortex and cerebellum by microdissection. Total protein extracts were prepared from the harvested tissues and submitted to WB analysis followed by quantitative analysis of selected mTORC1 substrates.
# Formulation of NV-5138 (160 mg/ml): NV-5138 (Navitor, Lot #09) was prepared by dissolving in Veh at a concentration of 160 mg/mL. […]
# Western Blot Analysis: Synaptosomes preparations (15 μg of total protein) were loaded and separated on NuPAGE 4-12% Bis-Tris gels and transferred to PVDF membrane (Immobilon-FL PVDF membrane, Millipore) using CAPS Buffer (10 mM 3-(Cyclohexylamino)-1-propanesulfonic acid, 12.5% Ethanol pH=10). […] Signals were quantified using the Odyssey Infrared Imaging System (LI-COR Bioscience). The resulting densitometric readings were used to generate a ratio of phopho-protein to α-tubulin. […]
smiles,measurement,setting,value
CC(C)(C[C@H](N)C(=O)O)C(F)F [NV-5138],"SPT, mean ratio of 1% sucrose to water consumption",[1]; CUS rats (Group 4),0.79
same,"SPT, mean ratio of 1% sucrose to water consumption",[1]; non-stressed (NS) rats,0.76
same,"activation of mTORC1 (pS6) in PFC, striatum, hippocampus, neocortex and cerebellum",[2],"significant activation of mTORC1 in most, but not all of the major regions of the brain"
